Laboratory results taken from paper PMC6778019 (Contraception, 2019).
Like-named read-outs stand apart in the source and are kept apart here. One block for each compound: values may come before it.

Experiments:
[1] = cited from earlier work; for LNG AUC / EE AUC: COC EE 30 mcg / norgestrel 300 mcg
[2] = Steady-state pharmacokinetics of LNG and EE from day 21 of a COC cycle; type: in vivo, HIV-positive women; conditions: for AUClast Change (%) / AUCτ Change (%) / CL Change (%) / Cmax Change (%) / Cmin Change (%) / T1/2 Change (%) / Tmax Change (%) / Vss Change (%): Ritonavir arm vs control arm; for concentration at 24 h: oral, concentration 24 h after the last dose; for concentration at 24 h / AUC / Cmax: mean±SD; for AUC: LNG AUCτ, AUC 24 h of the last dose of the 21-day cycle; for Cmax: last dose of the cycle
[3] = cited from earlier work
[4] = female, human, serum, po, T1/2, Ritonavir arm, half-life by NCA, median
[5] = COC users taking protease inhibitors

SMILES: C#CC1(O)CC[C@H]2[C@@H]3CCC4=CC(=O)CC[C@@H]4[C@H]3CC[C@@]21CC (stereo partly drawn) [norgestrel]
- increase in norgestrel AUC ([1]; women taking ARV vs not taking ARV medication): approximately 30%

SMILES: C#C[C@]1(O)CC[C@H]2[C@@H]3CCC4=CC(=O)CC[C@@H]4[C@H]3CC[C@@]21CC [LNG, levonorgestrel]
- LNG AUC ([1]; women not taking nevirapine): 114 ng·mL/h
- LNG AUC ([1]; women taking nevirapine): 147 ng·mL/h
- AUClast Change (%) [2]: 32.0%
- AUCτ Change (%) [2]: 32.6%
- CL Change (%) [2]: −16.7%
- Cmax Change (%) [2]: 27.0%
- Cmin Change (%) [2]: 34.4%
- T1/2 Change (%) [2]: 8.2%
- Tmax Change (%) [2]: 33.3%
- Vss Change (%) [2]: −13.2%
- half-life ([2]; female, human, in vivo, po): 2560 min
- concentration at 24 h ([2]; female, human, serum, LNG Cmin, Control arm (n=10)): 3.7 ± 1.29 ng/mL
- concentration at 24 h ([2]; female, human, serum, LNG Cmin, Ritonavir arm (n=5)): 4.97 ± 1.15 ng/mL
- AUC ([2]; female, human, serum, po, Control arm (n=10)): 113 ± 37 ng·h/mL
- AUC ([2]; female, human, serum, po, Ritonavir arm (n=5)): 150 ± 28 ng·h/mL
- Cmax ([2]; female, human, serum, po, LNG Cmax, Control arm (n=10)): 7.62 ± 2.29 ng/mL
- Cmax ([2]; female, human, serum, po, LNG Cmax, Ritonavir arm (n=5)): 9.68 ± 1.81 ng/mL
- half-life [2, 4]: 2770 min
- increase in LNG exposure ([2]; women on ritonavir vs control): approximately 30%

SMILES: C#C[C@]1(O)CC[C@H]2[C@@H]3CCC4=CC(=O)CC[C@@H]4[C@H]3CC[C@@]21C [norethindrone]
- decrease in norethindrone AUC [3, 5]: 18%
- increase in AUC of norethindrone [3, 5]: 110%
- increase in norethindrone AUC ([3]; norethindrone progestin-only pill, women using ritonavir): 50%

- AUClast Change (%) [2]: 18.2%
- AUCτ Change (%) [2]: 21.8%
- CL Change (%) [2]: −15.1%
- Cmax Change (%) [2]: 33.7%
- Cmin Change (%) [2]: 8.5%
- T1/2 Change (%) [2]: 10.5%
- Tmax Change (%) [2]: 0.0%
- Vss Change (%) [2]: −24.1%
- Tmax ([2]; Ritonavir arm, median (95% Confidence interval)): 1.0 (1.0,2.9) h
- Vss ([2]; Ritonavir arm, volume at steady state by NCA, median (95% Confidence interval)): 475 (370,671) L
- EE pharmacokinetic profiles, ritonavir vs control ([2]; comparison between groups): not different between groups
- concentration at 24 h ([2]; female, human, serum, EE Cmin, Control arm (n=10)): 0.0492 ± 0.0141 ng/mL
- concentration at 24 h ([2]; female, human, serum, EE Cmin, Ritonavir arm): 0.0533 ± 0.0147 ng/mL
- Tmax ([2]; female, human, serum, po): 1 h
- Cmax ([2]; female, human, serum, po, EE Cmax, Control arm (n=10)): 0.163 ± 0.0438 ng/mL
- half-life ([2]; female, human, serum, po, T1/2, Control arm (n=10), half-life by NCA, median): 1700 min
- half-life [2, 4]: 1880 min
SMILES: C#C[C@]1(O)CC[C@H]2[C@@H]3CCc4cc(O)ccc4[C@H]3CC[C@@]21C [EE, ethinyl estradiol]
- EE AUC ([1]; women not taking nevirapine): 1457 ng·mL/h
- EE AUC ([1]; women taking nevirapine): 1384 ng·mL/h
